Experimental data: article PMC8145596, “Novel Chemically Modified Curcumin (CMC) Derivatives Inhibit Tyrosinase Activity and Melanin Synthesis in B16F10 Mouse Melanoma Cells” (Biomolecules, 2021)
Entries after “also recorded” stand apart in the source; their conditions may differ. Where two headings read alike, the source gives them in different places.

Columns and labels:
[1] = system: α-glucosidase activity in B16F10 cells; test: Intracellular α-glucosidase assay; assay type: cell-based, mouse; settings: 48 h; for inhibition at 10 µM / inhibition at 20 µM / inhibition at 25 µM / inhibition at 5 µM: Mus musculus, B16-F10, read-out: inhibition of cellular α-glucosidase activity
Method: B16F10 cells (2.2 × 10^5) were grown in 6-well plates and compounds were added next day for 48 h. Cells were harvested, lysed and 50 µL of lysates were aliquoted in a 96-well plate with 100 µL of 2 mM pNG substrate; rate of the formation of the yellow-colored reaction product, p-nitrophenol, was monitored at 405 nm for 30 min at 37 °C in a microplate reader (kinetic mode) and values were normalized to total protein contents. The cellular α-glucosidase activity was calculated as (rate of sample reaction/rate of control reaction) × 100 and was expressed as percentage of control.

mushroom tyrosinase = mushroom tyrosinase (Agaricus bisporus, UniProt C7FF04); test: Monophenolase activity assay of mushroom tyrosinase (L-Tyrosine substrate); assay type: biochemical; settings: for mechanism of inhibition of monophenolase activity: L-B and Dixon plots, nonlinear curve fitting; for Ki: read-out: apparent Ki, monophenolase (L-TYR)
Sequence of mushroom tyrosinase (C7FF04 1-392): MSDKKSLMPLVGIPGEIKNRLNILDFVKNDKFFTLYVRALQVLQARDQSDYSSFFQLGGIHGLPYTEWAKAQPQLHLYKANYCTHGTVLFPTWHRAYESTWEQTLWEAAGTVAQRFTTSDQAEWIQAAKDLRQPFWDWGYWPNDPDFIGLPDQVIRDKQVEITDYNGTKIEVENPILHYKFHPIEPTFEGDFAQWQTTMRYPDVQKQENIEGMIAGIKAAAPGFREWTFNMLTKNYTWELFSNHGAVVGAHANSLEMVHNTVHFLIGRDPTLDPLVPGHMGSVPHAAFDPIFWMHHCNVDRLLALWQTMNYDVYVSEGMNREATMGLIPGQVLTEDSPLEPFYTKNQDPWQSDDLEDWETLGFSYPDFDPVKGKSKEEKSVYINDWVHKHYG
Method: The direct effects of the compounds on the monophenolase activity of tyrosinase were tested using mushroom tyrosinase enzyme with a fixed concentration of L-Tyrosine (L-Tyr) as the substrate. Briefly, 80 µL of compounds prepared at different concentrations in 50 mM sodium phosphate (pH 6.8) buffer were added to wells of a 96-well microplate followed by 100 µL of 2 mM L-Tyr solution. The reaction was initiated by adding 20 µL of mushroom tyrosinase (final concentration of enzyme in wells was 12.5 µg/mL) and was monitored by measuring absorbance at 475 nm every 30 s over a 30 min period, using a microplate reader (Versamax®) in the kinetic mode. The slopes of the plots of absorbance vs. time were calculated for comparison of enzyme activity in the presence of each of the inhibitors to that of an inhibitor-free control and reported as percentage of control activity (%).
In order to study the mechanism of inhibition of tyrosinase activity by the compounds as a function of substrate concentration, we conducted a kinetic study of monophenolase and diphenolase activities at multiple concentrations of substrates. For the monophenolase activity assay, the final concentration of enzyme was 12.5 µg/mL and the final substrate concentrations were 0.125, 0.25, 0.5 and 1 mM, while for diphenolase activity assay, the final concentration of enzyme was 3.5 µg/mL and the final substrate concentrations ranged from 0.1–3 mM. The slopes from the linear range of the progress curves of absorbance at 475 nm vs. time were recorded as apparent velocities and the reciprocal values, 1/v, were plotted as functions of the reciprocal values of the substrate concentrations at different fixed inhibitor concentrations according to the method of Lineweaver and Burk (L-B). Dixon plots of the reciprocal velocity values, (1/v), as functions of the inhibitor concentrations at different fixed substrate concentrations were also constructed to investigate further the apparent mode of inhibition by the compounds.
We have also analyzed the inhibition data using nonlinear curve fitting algorithms which are more robust than the linearized L-B and Dixon plotting methods that can weigh the data from evenly spaced concentrations disproportionately. The inhibition constants were calculated by non-linear least squares curve fitting using a modified Levenberg-Marquardt algorithm and data was fitted to models of pure competitive, noncompetitive, and uncompetitive inhibition using Enzfitter software (version 2.0, Biosoft, Cambridge, UK). This analysis was undertaken to assess the apparent potency of compounds, PC, CMC2.24, and CMC2.23 for each putative mode of inhibition.

[2] = system: B16F10 mouse melanoma cells; test: Melanin levels in B16F10 cells; assay type: cell-based; settings: for suppression of melanin levels: 48 h
Method: B16F10 cells (1 × 10^5 cells/well) were seeded in 12-well plates and cultured for 24 h. The medium was then replaced with compounds at nontoxic concentrations that were selected on the basis of the MTS assay and incubated for another 48 h. After the treatments, the cells were detached using TrypLE (1×), and cell pellets were washed in PBS. Cell pellets were visually observed for lightening of the pigment. After aspiration, 250 μL of 1N NaOH was added and heated to 70 °C to solubilize melanin. The aliquots were then transferred to a 96-well plate and absorbance was read at 475 nm using a microplate reader. The absorbance was normalized to total protein content and was expressed as % of control.

[3] = system: MITF protein in B16F10 cells; test: MITF protein levels by cell-based ELISA; design: species or system mouse; settings: 48 h
Method: Microphthalmia Transcription Factor (MITF), a known transcription factor for the tyrosinase gene, is a master regulator of melanogenesis and is activated by cyclic adenosine monophosphate (cAMP) signaling after UV irradiation, reflecting the role of cAMP as a key maturation factor in melanogenesis. The effects of PC and CMCs on MITF protein levels were assayed using a cell-based ELISA (Lifespan Biosciences, Seattle, WA, USA). Briefly, B16F10 cells were cultured in a 96-well plate at 1 × 10^4 cells/well for 24 h and then the medium was replaced with fresh medium containing compounds in 0.1% DMSO and cultures maintained for further 48 h. The cells were then fixed, and subsequent steps were conducted according to the manufacturers’ instructions. MITF protein levels were normalized to cell density by measuring the absorbance of crystal violet stain added to the fixed cells and the data was reported as % of control.

[4] = target: T1, α-glucosidase enzyme from Baker’s yeast (Saccharomyces cerevisiae, UniProt P53341); test: Cell-free α-glucosidase assay; assay type: biochemical
T1 construct: purchased Sigma-Aldrich (St. Louis, MO, USA)
T1 sequence (P53341 whole entry): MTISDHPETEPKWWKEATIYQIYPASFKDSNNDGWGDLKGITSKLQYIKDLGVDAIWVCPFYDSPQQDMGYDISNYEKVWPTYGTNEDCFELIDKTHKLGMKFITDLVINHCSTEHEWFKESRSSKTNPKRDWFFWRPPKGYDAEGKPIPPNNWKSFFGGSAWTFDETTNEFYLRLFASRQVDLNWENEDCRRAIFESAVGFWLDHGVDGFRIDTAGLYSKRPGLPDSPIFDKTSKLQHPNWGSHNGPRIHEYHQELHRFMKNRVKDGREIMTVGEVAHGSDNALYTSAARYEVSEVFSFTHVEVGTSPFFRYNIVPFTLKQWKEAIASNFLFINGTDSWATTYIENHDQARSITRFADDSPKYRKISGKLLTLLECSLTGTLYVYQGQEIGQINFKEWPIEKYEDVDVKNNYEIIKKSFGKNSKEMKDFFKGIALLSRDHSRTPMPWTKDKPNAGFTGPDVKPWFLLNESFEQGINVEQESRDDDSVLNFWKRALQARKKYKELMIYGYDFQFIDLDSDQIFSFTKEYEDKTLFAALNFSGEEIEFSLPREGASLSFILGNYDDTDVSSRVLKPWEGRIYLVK
Method: The effects of compounds on α-glucosidase were assayed based on the method decribed previously with some modifications. 80 µL of samples (prepared in 0.05 M phosphate buffer, pH 6.8) were aliquoted in a 96-well microplate followed by the addition of 100 µL of 2.4 mM pNG substrate solution. A volume of 20 µL of 0.45 units of α-glucosidase enzyme from Baker’s yeast prepared in 0.05 M buffer was added to start the reaction; the rate of the formation of p-nitrophenol was monitored at 405 nm for 15 min at 37 °C in a microplate reader in kinetic mode. The enzyme activity (%) was calculated as: (rate of sample reaction/rate of control reaction) × 100%.

[5] = system: cAMP levels in B16F10 cells; test: cAMP levels by competitive ELISA in B16F10 lysates; assay type: cell-based, mouse; settings: for effect on cAMP levels: all concentrations tested
Text: For assaying the levels of cAMP in B16F10 cellular lysates, a competitive ELISA (Enzo Life Sciences, Farmingdale, NY, USA) was used in non-acetylated format based on manufacturer instructions.

## 1,7-bis(4-hydroxy-3-methoxyphenyl)-1,6-heptadien-3,5-dione [PC, reference compound]
[1]; 5 µM
  inhibition of cellular α-glucosidase activity: 13.71%
[1]; 10 µM
  inhibition of cellular α-glucosidase activity: 10.47%
Mushroom tyrosinase; 10 μM compound
  inhibition of monophenolase activity: 14.41%
Mushroom tyrosinase; 20 μM compound
  inhibition of monophenolase activity: 21.31%
Mushroom tyrosinase; 25 μM compound
  inhibition of monophenolase activity: 22.10%
Mushroom tyrosinase
  mechanism of inhibition of monophenolase activity: not a pure competitive inhibitor; also recorded: mixed inhibitor
Mushroom tyrosinase; fit to pure competitive inhibition
  Ki: 7.74 µM
Mushroom tyrosinase; fit to pure noncompetitive inhibition
  Ki: 50.8 µM
Mushroom tyrosinase; fit to pure uncompetitive inhibition
  Ki: 40.2 µM
Mushroom tyrosinase; fixed substrate concentration (L-Tyr), read-out: IC50 for Monophenolase Inhibition
  IC50: 67 ± 2.4 µM
[2]; 10 µM
  suppression of melanin levels: 20.92%
[3]; 10 µM
  attenuation of MITF protein levels: 28.62%
[4]; 5 µM
  inhibition of cell-free α-glucosidase activity: 20.13%
[4]; 10 µM
  inhibition of cell-free α-glucosidase activity: 22.13%
[5]; 48 h
  effect on cAMP levels: trend for attenuation of cAMP levels, but the levels were not significant

## COC(=O)/C(C(=O)/C=C/c1ccc(O)c(OC)c1)=C(O)\C=C\c1ccc(O)c(OC)c1 [CMC2.5, 4-methoxycarbonyl curcumin]
[1]; 10 µM
  inhibition at 10 µM: 12.4%
[1]
  inhibition at 20 µM: 25.6%
[1]; 25 µM
  inhibition at 25 µM: 27.4%
[2]; 20 µM
  suppression of melanin levels: 34.84%
[2]; 25 µM
  suppression of melanin levels: 31.40%
[3]; 20 µM
  attenuation of MITF protein levels: 32.17%
[3]; 25 µM
  attenuation of MITF protein levels: 35.4%
[4]
  inhibition at 20 µM: 14%
[4]; concentrations other than 20 µM
  cell-free α-glucosidase activity: no change was observed at any other concentration
[5]; 48 h
  effect on cAMP levels: did not affect cAMP levels at any concentration

## COC(=O)/C(C(=O)/C=C/c1ccc(O)cc1)=C(O)\C=C\c1ccc(O)cc1 [CMC2.14]
[1]; 10 µM
  inhibition at 10 µM: 16.5%
[2]; 10 µM
  suppression of melanin levels: 28.42%
[3]; 10 µM
  attenuation of MITF protein levels: 23.67%
[4]; 10 µM
  inhibition at 10 µM: 14.3%
[5]; 48 h
  effect on cAMP levels: did not affect cAMP levels at any concentration

## COc1cc(/C=C/C(=O)/C(C(=O)Nc2ccccc2)=C(O)/C=C/c2ccc(O)c(OC)c2)ccc1O [CMC2.23]
[1]; 25 µM
  inhibition of cellular α-glucosidase activity: no change
[1]; 5 µM
  inhibition at 5 µM: 12.4%
[1]; 10 µM
  inhibition at 10 µM: 14.9%
[1]
  inhibition at 20 µM: 11.8%
Mushroom tyrosinase
  mechanism of inhibition of monophenolase activity: mixed, but predominantly competitive, mode of inhibition
[2]; 10 µM
  suppression of melanin levels: 28.63%
[2]; 20 µM
  suppression of melanin levels: 33.68%
[2]; 25 µM
  suppression of melanin levels: 37.87%
[3]; 10 µM
  attenuation of MITF protein levels: 32.27%
[3]; 20 µM
  attenuation of MITF protein levels: 39.29%
[3]; 25 µM
  attenuation of MITF protein levels: 37.22%
[4]; 5 µM
  inhibition at 5 µM: 15.5%
[4]; 10 µM
  inhibition at 10 µM: 16.5%
[4]
  inhibition at 20 µM: 19.8%
  inhibition at 25 µM: 17.2%
[5]; 48 h
  effect on cAMP levels: did not affect cAMP levels at any concentration

## O=C(/C=C/c1ccc(O)cc1)/C(C(=O)Nc1ccccc1)=C(O)/C=C/c1ccc(O)cc1 [CMC2.24]
[1]; 5 µM
  inhibition at 5 µM: 10.2%
[1]; 10 µM
  inhibition at 10 µM: 12.6%
[1]
  inhibition at 20 µM: 20.3%
[1]; 25 µM
  inhibition at 25 µM: 16.4%
Mushroom tyrosinase; 5 μM compound, 1 mM L-Tyr final
  inhibition at 5 µM: 32.1%
Mushroom tyrosinase; 10 μM compound
  inhibition at 10 µM: 34.7%
Mushroom tyrosinase; 20 μM compound
  inhibition at 20 µM: 34.8%
Mushroom tyrosinase; 25 μM compound
  inhibition at 25 µM: 37%
Mushroom tyrosinase
  mechanism of inhibition of monophenolase activity: mixed mode of inhibition with a predominantly competitive mechanism
[2]; 10 µM
  suppression of melanin levels: 32.54%
[2]; 20 µM
  fold higher level of melanin inhibition vs PC: 1.5 fold
  suppression of melanin levels: 43.53%
[2]; 25 µM
  fold higher level of melanin inhibition vs PC: 2 fold
  suppression of melanin levels: 41.07%
[3]; 10 µM
  attenuation of MITF protein levels: 28.39%
[3]; 20 µM
  attenuation of MITF protein levels: 31.79%
[3]; 25 µM
  attenuation of MITF protein levels: 38.84%
[4]; 5 µM
  inhibition at 5 µM: 27.1%
[4]; 10 µM
  inhibition at 10 µM: 25.6%
[4]
  inhibition at 20 µM: 35.3%
  inhibition at 25 µM: 41.3%
[5]; 10 µM, 48 h (not significant)
  attenuation of cAMP levels: 18.13%
[5]; 20 µM, 48 h
  attenuation of cAMP levels: 38.18%
[5]; 25 µM, 48 h
  attenuation of cAMP levels: 49.42%
